Data on seven molecules can be found in patent US20170168041A1, “Polymers And Oligomers With Aggregation-Induced Emission Characteristics For Imaging And Image-Guided Therapy” (National University of Singapore, priority 2014, published 2017).

Series [1] is described as follows: 1O2 quantum yield measurement with ABDA, Rose Bengal standard. In kind it is physicochemical. Particulars: for 1O2 quantum yield: in water, white light, relative to Rose Bengal; for degradation rate of ABDA: white light irradiation, ABDA absorbance at 378 nm. On the procedure: The ^1O2-sensitive indicator, 9,10-anthracenediyl-bis(methylene) dimalonic acid (ABDA), was used as the ^1O2-trapping agent, and Rose Bengal (RB) was used as the standard photosensitizer. In these experiments, 10 μL of ABDA solution ([…]) was added to 1 mL of sample solution, and white light (400-800 nm) with a power density of 0.25 W cm^−2 was employed as the irradiation source. The absorbance of ABDA at 378 nm was recorded at different irradiation time to obtain the decay rate of the photosensitizing process. The ^1O2 quantum yield of the PS in water (ΦPS) was calculated using the following formula: […]
Where KPS and KRB are the decomposition rate constants of ABDA by the PSs and RB, respectively. APS and ARB represent the light absorbed by the PSs and RB, respectively, which are determined by integration of the optical absorption bands in the wavelength range 400-800 nm. ΦRB is the ^1O2 quantum yield of RB, and ΦRB=0.75 in water.
To assess capabilities of PPDC, TPPDC, and TPDC in ^1O2 generation, a commercial ^1O2 probe ABDA was used as an indicator and Rose Bengal (RB) was used as the standard photosensitizer (^1O2 quantum yield ORB=0.75 in water). In the presence of PSs or RB under irradiation with white light, the absorbance of the ABDA solution at 378 nm, decreases with prolonged irradiation time, indicating the degradation of ABDA by ^1O2 generated by PSs. […] Thus, the ^1O2 quantum yield of PPDC, TPPDC and TPDC was calculated to be 0.89, 0.32 and 0.28, respectively. These findings agree well with the prediction based on eq. (1).

The conditions of series [2]: in water; cited from earlier work.
Series [3] can be described thus: ROS generation of AIE residue of prodrug, ABDA absorbance. In kind it is physicochemical. Particulars: 12 min light irradiation, 0.25 W cm-2. The source says: The ROS generation of the AIE residue was studied by measuring the absorption spectra of the mixture of TPECB-Pt-D5-cRGD and 9,10-anthracenediyl-bis(methylene)dimalonic acid (ABDA) in DMSO/PBS (v/v=1/199) upon light irradiation. It should be noted that the absorbance of TPECB-Pt-D5-cRGD is low and will not disturb the absorbance change of ABDA. As depicted in FIG. 23D, the absorption peaks at 358 nm, 378 nm and 400 nm attributed to the anthracene moiety in ABDA decreased gradually upon light irradiation. This is due to the fact that ABDA can efficiently trap ROS by fast reaction with the anthracene moiety.

In the next series the test system is 293T cells. Briefly: MTT anti-proliferative assay. In kind it is cell-based. Particulars: in dark or with light irradiation. On the procedure: (§1) Subsequently, the anti-proliferative properties of TPECB-Pt-D5-cRGD towards MDA-MB-231 cells, U87-MG cells, MCF-7 cells and 293T cells were evaluated by MTT assays. The MDA-MB-231 cells are cisplatin resistant while U87-MG cells are cisplatin-sensitive. […] It should be noted that the cytotoxicity of cisplatin to both cells was not affected by the light irradiation.

In the next series the test system is MCF-7 cells. Briefly: MTT anti-proliferative assay. In kind it is cell-based. Particulars: in dark or with light irradiation. The method, then:
as §1

In another series the test system is MDA-MB-231 cells. Briefly: Combination index (C.I.) analysis from dose-effect profiles. In kind it is cell-based. The conditions noted are these: drug effect levels from 75% to 25%. The method, then: To confirm the drug synergy in cRGD-TPE-Pt-DOX, the combination index (C.I.) was calculated. The C.I. derived from the dose-effect profiles was plotted against drug effect level, which provided quantitative information of the combination drug effect, where C.I. values lower than, equal to, or higher than 1 denote synergism, additivity, or antagonism, respectively.
The combination therapy of cisplatin and DOX towards MDA-MB-231 cells was evaluated by the combination index (C.I.) analysis. The C.I. was calculated as follows: C.I.=D1/Df1+D2/Df2+D1D2/Df1Df2. Where. Df1 is the dose of Drug-1 required to produce x percent effect alone and D1 is the dose of Drug-1 required to produce the same x percent effect in combination with Drug-2; similarly, Df2 is the dose of Drug-2 required to produce x percent effect alone and D2 is the dose of Drug-2 required to produce the same x percent effect in combination with Drug-1. Theoretically, C.I. is the ratio of the combination dose to the sum of the single-drug doses at an isoeffective level. Consequently, C.I. values <1 indicate synergism, values >1 show antagonism, and values=1 indicate additive effects.

Series [4] relates to MDA-MB-231, MCF-7 and 293T cells. Briefly: Annexin V-FITC/PI apoptosis staining. In kind it is cell-based. Particulars: 6 h incubation; only MDA-MB-231 strong apoptotic fluorescence, MCF-7 and 293T negligible. The method, then: The toxicity of cRGD-TPE-Pt-DOX to different cells was also studied using MDA-MB-231, MCF-7 and 293T cells as examples. After incubation with cRGD-TPE-Pt-DOX for 6 h, the cells were stained with Annexin V-FITC/Propidium Iodide (PI), which are commonly used fluorescent probes to distinguish viable cells from apoptosis ones. […] This should be due to the integrin mediated endocytosis, which leads to selective cellular uptake of the prodrug cRGD-TPE-Pt-DOX.

Another series deals with U87-MG cells. Briefly: MTT anti-proliferative assay. In kind it is cell-based. The conditions noted are these: not affected by light irradiation. The method, then: as §1

In the case of `COc1ccc(C(=C(c2ccccc2)c2ccc(-c3ccc(C(C)=C(C#N)C#N)cc3)cc2)c2ccc(OC)cc2)cc1` [PPDC], in series [1], the 1O2 quantum yield was 0.89 and the “degradation rate of ABDA” value worked out at 0.0032.
With `O=C([O-])c1c(Cl)c(Cl)c(Cl)c(Cl)c1-c1c2cc(I)c(=O)c(I)c-2oc2c(I)c([O-])c(I)cc12.[Na+].[Na+]` [Rose Bengal], the “1O2 quantum yield of standard” value in series [2] is 0.75.
With `COc1ccc(C(=C(c2ccccc2)c2ccc(C(C)=C(C#N)C#N)cc2)c2ccc(OC)cc2)cc1` [TPDC], in series [1], the 1O2 quantum yield worked out at 0.28 and the “degradation rate of ABDA” value is reported as 0.0013.
In the case of `COc1ccc(C(=C(c2ccccc2)c2ccc(C(/C=C/c3ccc(OCCCNC(=O)CCC(=O)[O][Pt-2]([NH3+])([NH3+])([Cl])([Cl])[O]C(=O)CCC(=O)N[C@@H](CC(=O)O)C(=O)N[C@@H](CC(=O)O)C(=O)N[C@@H](CC(=O)O)C(=O)N[C@@H](CC(=O)O)C(=O)N[C@@H](CC(=O)O)C(=O)NCCCC[C@@H]4NC(=O)[C@@H](Cc5ccccc5)NC(=O)[C@H](CC(=O)O)NC(=O)CNC(=O)[C@H](CCCNC(=N)N)NC4=O)cc3)=C(C#N)C#N)cc2)c2ccc(OC)cc2)cc1` [TPECB-Pt-D5-cRGD], the “ABDA absorption at 400 nm, % of original value” in series [3] was found to be 24.1%. The cytotoxicity result in the series on 293T cells and with MCF-7 cells was “minimum cytotoxicity” each time.
As to `COc1ccc(C(=C(c2ccccc2)c2ccc(C(=C(C#N)C#N)c3ccccc3)cc2)c2ccc(OC)cc2)cc1` [TPPDC], in series [1], the 1O2 quantum yield is on record as 0.32 and the “degradation rate of ABDA” value is on record as 0.0018.
In the case of `COc1cccc2c1C(=O)c1c(O)c3c(c(O)c1C2=O)C(OC1CC(NC(=O)CCC(=O)[O][Pt]([NH2])([NH2])([Cl])([Cl])[O]C(=O)CCC(=O)NCc2cn(Cc4ccc(/C(=C(\c5ccccc5)c5ccc(Cn6cc(C[C@@H]7NC(=O)[C@@H](Cc8ccccc8)NC(=O)[C@H](CC(=O)O)NC(=O)CNC(=O)[C@H](CCCNC(=N)N)NC7=O)nn6)cc5)c5ccccc5)cc4)nn2)C(O)C(C)O1)CC(O)(C(=O)CO)C3` (stereo partly shown) [cRGD-TPE-Pt-DOX], in the series on MDA-MB-231 cells, the “combination index (C.I.) result” value was “synergistic effect”. Also, the selective apoptosis result in series [4] is “selectively kill integrin overexpressed cancer cells”.
Consider `N.N.[Cl][Pt][Cl]` [cisplatin], for which, in the series on U87-MG cells, the IC50 worked out at 5.4 µM.
